Test results taken from patent US4272437A, “Antibacterial agents, and 4-thio azetidinone intermediates” (priority 1979, dated 1981).
≈ marks a conversion by molar mass, not a printed value. Structures can show the parent of a compound that is named as a salt. Where two headings read alike, the source gives them in different places.

Legend:
[1] = test system: Staph. aureus (Pen-Res) A-9606; assay: MIC, tube dilution, Staphylococcus aureus A9606 (Pen-Res); type: cell-based; settings: Staphylococcus aureus, Staph. aureus A9606 (Pen-Res); overnight 37° C.; read-out: Minimum Inhibitory Concentration (M.I.C.)
From the text: (§1) Representative compounds of the present invention were subjected to in vitro antibiotic screening against a variety of microorganisms.

Pr. mirabilis A-9900 = assay: MIC, tube dilution, Proteus mirabilis A9900; type: cell-based; settings: Proteus mirabilis, A9900, Proteus mirabilis A9900; overnight 37° C.; read-out: Minimum Inhibitory Concentration (M.I.C.)
From the text: as §1

K. pneumoniae A-15130 = assay: MIC, tube dilution, Klebsiella pneumoniae A15130; type: cell-based; settings: Klebsiella pneumoniae, A15130, K. pneumoniae A15130; overnight 37° C.; read-out: Minimum Inhibitory Concentration (M.I.C.)
From the text: as §1

E. coli A-20341-1 = assay: MIC, tube dilution, Escherichia coli A20341-1; type: cell-based
From the text: as §1

Proteus rettgeri A21203 = assay: MIC, tube dilution, Proteus rettgeri A21203; type: cell-based; settings: Providencia rettgeri, A21203, Proteus rettgeri A21203; overnight 37° C.; read-out: Minimum Inhibitory Concentration (M.I.C.)
From the text: as §1

Str. pneumoniae A-9585 = assay: MIC, tube dilution, Streptococcus pneumoniae A9585; type: cell-based; settings: Streptococcus pneumoniae, A9585, Str. pneumoniae A9585; overnight 37° C., Nutrient Broth; read-out: Minimum Inhibitory Concentration (M.I.C.)
From the text: as §1

Str. pyogenes A-9604 = assay: MIC, tube dilution, Streptococcus pyogenes A9604; type: cell-based; settings: Streptococcus pyogenes, A9604, Str. pyogenes A9604; overnight 37° C., Nutrient Broth; read-out: Minimum Inhibitory Concentration (M.I.C.)
From the text: as §1

Ps. aeruginosa A-21213 = assay: MIC, tube dilution, Pseudomonas aeruginosa A21213; type: cell-based; settings: Pseudomonas aeruginosa A21213; overnight 37° C.; read-out: Minimum Inhibitory Concentration (M.I.C.)
From the text: as §1

Pr. morganii A-15153 = assay: MIC, tube dilution, Proteus morganii A15153; type: cell-based; settings: Morganella morganii, A15153, Proteus morganii A15153; overnight 37° C.; read-out: Minimum Inhibitory Concentration (M.I.C.)
From the text: as §1

[2] = test system: Klebsiella species A20468; assay: MIC, tube dilution, Klebsiella species A20468; type: cell-based; settings: Klebsiella species (K. pneumoniae) A20468; overnight 37° C.; read-out: Minimum Inhibitory Concentration (M.I.C.)
From the text: as §1

Str. faecalis A-20688 = assay: MIC, tube dilution, Streptococcus faecalis A20688; type: cell-based; settings: Enterococcus faecalis, A20688, Str. faecalis A20688; overnight 37° C.; read-out: Minimum Inhibitory Concentration (M.I.C.)
From the text: as §1

Ent. cloacae A-9656 = assay: MIC, tube dilution, Enterobacter cloacae A9656; type: cell-based; settings: overnight 37° C., read-out: Minimum Inhibitory Concentration (M.I.C.)
From the text: as §1

[3] = test system: Staph. aureus A-9537 and 50% serum; assay: MIC, tube dilution, Staph. aureus A9537 + 50% serum; type: cell-based, Staphylococcus aureus; settings: Staphylococcus aureus, overnight 37° C., read-out: Minimum Inhibitory Concentration (M.I.C.)
From the text: as §1

[4] = test system: Staph. aureus (Meth-Res) A-15097; assay: MIC, tube dilution, Staphylococcus aureus A15097 (Meth-Res); type: cell-based; settings: Staphylococcus aureus, Staph. aureus A15097 (Meth-Res); overnight 37° C.; read-out: Minimum Inhibitory Concentration (M.I.C.)
From the text: as §1

Ser. marcescens A-20019 = assay: MIC, tube dilution, Serratia marcescens A20019; type: cell-based; settings: Serratia marcescens, A20019, Serratia marcescens A20019; overnight 37° C.; read-out: Minimum Inhibitory Concentration (M.I.C.)
From the text: as §1

Ps. aeruginosa A-9843A = assay: MIC, tube dilution, Pseudomonas aeruginosa A9843A; type: cell-based; settings: Pseudomonas aeruginosa, A9843A, read-out: Minimum Inhibitory Concentration (M.I.C.), Pseudomonas aeruginosa A9843A; overnight 37° C.
From the text: as §1

Proteus vulgaris A9555 = assay: MIC, tube dilution, Proteus vulgaris (mirabilis) A9555; type: cell-based; settings: overnight 37° C., read-out: Minimum Inhibitory Concentration (M.I.C.)
From the text: as §1

Ent. cloacae A-9659 = assay: MIC, tube dilution, Enterobacter cloacae A9659; type: cell-based; settings: Enterobacter cloacae, A9659, Enterobacter cloacae A9659; overnight 37° C.; read-out: Minimum Inhibitory Concentration (M.I.C.)
From the text: as §1

Staph. aureus A-9537 = assay: MIC, tube dilution, Staphylococcus aureus A9537; type: cell-based; settings: Staphylococcus aureus, A9537, Staph. aureus A9537; overnight 37° C., Nutrient Broth; read-out: Minimum Inhibitory Concentration (M.I.C.)
From the text: as §1

E. coli A-15119 = assay: MIC, tube dilution, Escherichia coli A15119; type: cell-based; settings: Escherichia coli, A15119, E. coli A15119; overnight 37° C.; read-out: Minimum Inhibitory Concentration (M.I.C.)
From the text: as §1

| SMILES | MIC [1] [µg/mL] | MIC (Pr. mirabilis A-9900) [µg/mL] | MIC (K. pneumoniae A-15130) [µg/mL] | MIC (Proteus rettgeri A21203) [µg/mL] | MIC (Str. pneumoniae A-9585) [µg/mL] | MIC (Str. pyogenes A-9604) [µg/mL] | MIC (Ps. aeruginosa A-21213) [µg/mL] | MIC (Pr. morganii A-15153) [µg/mL] | MIC [2] [µg/mL] | MIC (Str. faecalis A-20688) [µg/mL] | MIC [3] [µg/mL] | MIC [4] [µg/mL] | MIC (Ser. marcescens A-20019) [µg/mL] | MIC (Ps. aeruginosa A-9843A) [µg/mL] | MIC (Proteus vulgaris A9555) [µg/mL] | MIC (Ent. cloacae A-9659) [µg/mL] | MIC (Staph. aureus A-9537) [µg/mL] | MIC (E. coli A-15119) [µg/mL] | other results |
| --- | --- | --- | --- | --- | --- | --- | --- | --- | --- | --- | --- | --- | --- | --- | --- | --- | --- | --- | --- |
| CC1=C(C(=O)O)N2C(=O)[C@H](C(C)(C)O)[C@H]2S1 (relative stereo) [Example 32, trans 6-(2'-Hydroxy-2'-propyl)-2-methylpenem-3-carboxylic Acid] | 16 (≈ 65.8 µM) | 63 (≈ 259 µM) | 125 (≈ 514 µM) | 63 (≈ 259 µM) | 0.25 (≈ 1.03 µM) | 8 (≈ 32.9 µM) | 125 (≈ 514 µM) | 125 (≈ 514 µM) | > 125 | > 125 | 32 | 63 (≈ 259 µM) | 63 (≈ 259 µM) | 125 (≈ 514 µM) | 125 (≈ 514 µM) | 125 (≈ 514 µM) | 8 (≈ 32.9 µM) | 63 (≈ 259 µM) | MIC (E. coli A-20341-1; Escherichia coli, A203411; E. coli A20341-1; overnight 37° C.; read-out: Minimum Inhibitory Concentration (M.I.C.)): > 125 µg/mL; MIC (Ent. cloacae A-9656; Enterobacter cloacae A9656): 125 µg/mL (≈ 514 µM) |
| CC1=C(C(=O)O)N2C(=O)[C@@H]([C@@H](C)O)[C@H]2S1 (relative stereo) [Example 34, cis 6-(1'-Hydroxy-1'-ethyl)-2-methylpenem-3-carboxylic Acid, Sodium Salt (isomer "D")] | 4 | 16 | 32 | 32 | 0.25 | 2 | 125 | 32 | 125 | 125 | 63 | 16 | 32 | 125 | 16 | 32 | 4 | 4 | MIC (E. coli A-20341-1; Escherichia coli, A203411, E. coli A20341-1; overnight 37° C.; read-out: Minimum Inhibitory Concentration (M.I.C.)): 16 µg/mL; MIC (Ent. cloacae A-9656; Enterobacter cloacae, A9656, Enterobacter cloacae A9656): 63 µg/mL |
